Measurements taken from patent US4675428A, “Sulfonic acid ester derivatives useful as antilipemic agents” (Taiho Pharmaceutical Company, Limited, priority 1982, dated 1987).

Assays:
[1] = Heat-stability on storage at 40° C. (HPLC content of undecomposed compound); type: physicochemical; conditions: for remaining at 288 h / remaining at 360 h: solid storage; for remaining at 288 h: 12th day; for remaining at 360 h: 15th day; for Content (%) Start: start (initial content)
Procedure: The following compounds (200 mg each) were placed in transparent sample bottles, and left to stand at a constant temperature of 40° C. for 15 days. Thereafter, they were checked for the heat-stability by determining the change of content of the compounds which remained not decomposed as of the 12th and 15th day. The content was measured by high performance liquid chromatography using a 60:40 mixture of acetonitrile and water as an eluent, and the percentages of the content of the undecomposed compound were calculated based on the initial content.

chymotripsin = chymotripsin (Bos taurus, UniProt P00766); assay: Chymotripsin inhibiting activity (ATEE hydrolysis); type: biochemical; conditions: 1 × 10^-4 mole; pH 8.0, 37° C., ATEE substrate
Procedure: 2. Chymotripsin inhibiting activity
An enzyme solution (0.1 unit of chymotripsin) is added to a specified quantity of buffer solution containing 0.1 mole of trishydrochloric acid (pH 8.0). To the mixture is further added a 50% ethanol solution of the compound of the invention, and the resulting mixture is reacted at 37° C. for 20 minutes.
On completion of the reaction, 10 micromoles of N-acetyl-L-thyrosine (ATEE) serving as a substrate is added to the mixture, and the resulting mixture is reacted at 37° C. for 30 minutes. After the completion of the reaction, the amount of remaining ATEE is determined by the same hydroxamic acid method as used in the method of determining the esterase inhibiting activity. The percent chymotripsin inhibition is given by
Percent inhibition=(A-B/A)×100
wherein A is the amount of hydrolyzed esters in the reaction system not containing the compound of the invention, and B is the amount of hydrolyzed esters in the reaction system containing the present compound.

plasma triglycerides = assay: Antilipemic effect (plasma triglycerides after oral olive oil); type: in vivo, male Wistar rats; conditions: Wistar rats, oral in olive oil (100 mg in 5 ml, 5 ml/kg), plasma 2 h after dosing
Procedure: Seven-week-old male Wistar rats weighing 200 to 220 g are used, 5 rats in each group.
The compound of the invention (100 mg) is dissolved in 5 ml of olive oil. The olive oil containing the compound is orally given to the rat with a probe at a dose of 5 ml/kg. Two hours thereafter, 6 ml of whole blood is withdrawn from the descending aorta of the rat under ether anesthesia with a syringe containing heparin. The blood is centrifuged at 5° C. and 3000 r.p.m. to obtain the plasma.
The plasma collected is used for determining the triglycerides content, using a triglycerides measuring kit (trade mark "Triglycerides-B Test Wako," product of Wako Junyaku Co., Ltd., Japan). Olive oil containing no compound is similarly given to a control group, while no treatment is conducted for a normal group. The triglycerides content in the plasma is also determined for these groups in the same manner as is the case with the test groups.
The percent hyperlipidemia inhibition achieved by the present compound is given by
Percent inhibitaion=(A-C/A-B)×100
in which A is the triglycerides content of the control group, B is the triglycerides content of the normal group, and C is the triglycerides content of the group to which the present compound is given.

[2] = molecular target: esterase solution prepared from a purified microsome fraction of the liver of a rat; assay: Esterase inhibiting activity (hydrolysis of methyl butyrate); type: biochemical; conditions: pH 8.0, 37° C., 60 min
Procedure: 1. Esterase inhibiting activity
A 10 micromole quantity of methyl butyrate in a 50% ethanol solution is added as a substrate to a specified amount of buffer solution containing 0.1 mole of trishydrochloric acid (pH 8.0). To the mixture is further added a 50% ethanol solution of the compound of the invention, immediately followed by addition of an esterase solution prepared from a purified microsome fraction of the liver of a rat (adjusted to hydrolyze 9 micromoles of methyl butyrate at 37° C. in one hour) as an enzyme solution. The mixture is reacted at 37° C. for 60 minutes.
After the reaction, alkaline hydroxylamine is added to the mixture to form a hydroxamic acid derivative of methyl butyrate, and a ferric salt is added to the derivative. The resulting red color is colorimetrically determined (at a wavelength of 540 nm) to determine the amount of remaining methyl butyrate. The esterase inhibiting ratios of the present compound at (at least three) different concentrations are plotted as ordinate, and the logarithms of the concentrations as abscissa to obtain a line, which gives the 50% inhibition concentration (IC50).

remaining at 288 h [1] [%] | remaining at 360 h [1] [%] | Content (%) Start [1] [%] | Chymotripsin inhibition (%) (chymotripsin) | IC50 [2] [nM] | Structure (SMILES) | Antilipemic TG inhibition (%) (plasma triglycerides)
91 | 15 | 100 |  |  | CCOc1ccc(S(=O)(=O)OCC(=O)C2CCC(CC)CC2)cc1 (stereo not shown) [Compound C-4] | 
100 | 100 | 100 |  |  | COc1ccc(S(=O)(=O)OCC(=O)C2(C)CCC(CC(C)C)CC2)cc1 (stereo not shown) [Compound T-13] | 
 |  |  | 41 | 22 | O=C(COS(=O)(=O)c1ccccc1)C1CCC2(CCCC2)CC1 [Compound 22] | 84.2
93 | 16 | 100 |  |  | Cc1ccc(S(=O)(=O)OCC(=O)[C@H]2CC[C@H](C(C)(C)C)CC2)cc1 [Compound C-2] | 
 |  |  | 61 | 5.4 | O=C(COS(=O)(=O)c1ccccc1)C1CCC2(CCCCC2)CC1 [Compound 24] | 93.5
 |  |  |  | 3000 | Cc1ccc(S(=O)(=O)OCC(=O)C2CCC3(CCCC3)CC2)cc1 [Compound 23] | 
100 | 100 | 100 |  |  | CC(C)[C@H]1CC[C@](C)(C(=O)COS(=O)(=O)c2ccccc2)CC1 [Compound T-7] | 
80 | 14 | 100 |  |  | CCOc1ccc(S(=O)(=O)OCC(=O)C2CCCCC2)cc1 [Compound C-6] | 
 |  |  | 14 | 33000 | CC(C)[C@H]1CC[C@@](C)(C(=O)COS(=O)(=O)c2ccccc2)CC1 [Compound 5] | 49.0
 |  |  | 71 | 5.8 | CC1(C)CCC(C(=O)COS(=O)(=O)c2ccccc2)CC1 [Compound 16, 1-(benzenesulfonyloxy)-2-(4,4-dimethylcyclohexyl)-2-ethanone] | 77.5
72 | 19 | 100 |  |  | O=C(CCC1CCCCC1)COS(=O)(=O)c1ccccc1 [Compound C-8] | 
100 | 100 | 100 |  |  | Cc1cc(C)c(S(=O)(=O)OCC(=O)C2(C)CCC(C(C)C)CC2)c(C)c1 (stereo not shown) [Compound T-6] | 
 |  |  | 12 | 35000 | CC[C@H]1CC[C@@](CC)(C(=O)COS(=O)(=O)c2ccccc2)CC1 [Compound 1] | 
92 | 14 | 100 |  |  | CC(C)[C@H]1CC[C@H](C(=O)COS(=O)(=O)c2ccccc2)CC1 [Compound C-1] | 
 |  |  | 35 | 560 | Cc1ccc(S(=O)(=O)OCC(=O)C2(C)CCC(C(C)C)CC2)cc1 (stereo not shown) [Compound 8] | 
 |  |  | 26 | 16 | CC(C)[C@H]1CC[C@](C)(C(=O)COS(=O)(=O)c2ccccc2)CC1 [Compound 7] | 72.0
95 | 40 | 100 |  |  | Cc1cc(C)c(S(=O)(=O)OCC(=O)C2CCC(C(C)C)CC2)c(C)c1 (stereo not shown) [Compound C-3] | 
85 | 15 | 100 |  |  | O=C(COS(=O)(=O)c1ccccc1)C1CCCCC1 [Compound C-5] | 
95 | 20 | 100 |  |  | Cc1cc(C)c(S(=O)(=O)OCC(=O)C2CCCCC2)c(C)c1 [Compound C-7] | 
 |  |  | 34 | 4.2 | CCCC1(C)CCC(C(=O)COS(=O)(=O)c2ccccc2)CC1 (stereo not shown) [Compound 19] | 95.4
 |  |  |  | 2 | Cc1cc(C)c(S(=O)(=O)OCC(=O)C2CCC(C)(C)CC2)c(C)c1 [Compound 17] | 
100 | 100 | 100 |  |  | Cc1ccc(S(=O)(=O)OCC(=O)C2(C)CCC(C(C)C)CC2)cc1 (stereo not shown) [Compound T-8] | 
 |  |  |  | 2500 | COc1ccc(S(=O)(=O)OCC(=O)C2CCC(C)(C)CC2)cc1 [Compound 18] | 
 |  |  | 15 | 2200 | CC(C)C[C@H]1CC[C@](C)(C(=O)COS(=O)(=O)c2ccccc2)CC1 [Compound 11] | 70.5
 |  |  | 25 | 340 | CC[C@H]1CC[C@](CC)(C(=O)COS(=O)(=O)c2ccccc2)CC1 [Compound 3] | 47.1
